Measurements taken from publication PMC9820316, “Novel Arylpiperazine Derivatives of Salicylamide with α1-Adrenolytic Properties Showed Antiarrhythmic and Hypotensive Properties in Rats” (International Journal of Molecular Sciences, 2022).
Marks after values point to notes of the source that are not given here.

Columns and labels:
[1] = tested on: aconitine-induced arrhythmia model in rats; assay: Prophylactic antiarrhythmic activity in aconitine-induced arrhythmia; assay type: in vivo, rat; settings: 5 mg/kg iv 15 min before aconitine 20 μg/kg; number of animals with event
Procedure: (§1) The animals were anesthetized with thiopental (75 mg/kg ip). Depending on the model, either adrenaline, aconitine, or calcium chloride was used as an arrhythmogen. Adrenaline and aconitine were administered iv at a dose of 20 µg/kg, whereas calcium chloride was administered at a dose of 140 mg/kg to induce heart rhythm disturbances. The tested compounds were injected iv 15 min before the arrhythmogen. Aspel ASCARD apparatus (standard II lead, with the tape speed 50 mm/s and voltage calibration 1 mV = 1 cm) was used for ECG measurements. […] The ED50 was calculated using the method of Litchfield and Wilcoxon.

α1-adrenergic receptors = assay: α1-adrenoceptor radioligand binding assay ([3H]-prazosin, rat cortex); settings: rat cortex tissue, mean ± SEM
Procedure: (§2) The α1- and α2-adrenoceptor radioligand binding assays were performed on the rat cerebral cortex using previously described methods. […] The brains were homogenized using the ULTRA-TURRAX homogenizer in 10 mL of an ice-cold 50 mM Tris-HCl buffer (pH 7.6). The homogenates were centrifuged at 20,000× g for 20 min (0–4 °C). Subsequently, the cell pellet was resuspended in the Tris–HCl buffer and centrifuged again. Radioligand binding assays were carried out in plates (MultiScreen/Millipore). The final incubation mixture, with a volume of 300 μL, consisted of 240 μL of the tissue suspension, 30 μL of the radioligand solution, and 30 μL of the buffer containing 7–8 concentrations of the studied compounds. In order to measure the unspecific binding, 10 μM phentolamine (for [^3H]-prazosin) or 10 μM clonidine (for [^3H]-clonidine) were utilized. The incubation was completed by rapid filtration through Whatman GF/C filters using a vacuum manifold (Millipore). The filters were then washed twice with the assay buffer and placed in scintillation vials with a liquid scintillation cocktail. Radioactivity was measured in a WALLAC 1409 DSA liquid scintillation counter (Perkin Elmer, USA). All the assays were performed in duplicates, and the inhibitory constants (Ki) were calculated.

normotensive rats = assay: Influence on blood pressure in the normotensive rats; assay type: in vivo, rat; settings: for DBP—diastolic blood pressure / SBP—systolic blood pressure: mean ± SD
Procedure: The experiment was performed according to the method described earlier. Normotensive Wistar rats were anesthetized with thiopental (75 mg/kg ip). The right carotid artery was cannulated with a polyethylene tube filled with heparin solution, using a Datamax apparatus (Columbus Instruments, Columbus, OH, USA). After 15 min of the stabilization period, the studied compounds were administered iv, and their effect on systolic and diastolic blood pressure was evaluated (Figure 4A).

[2] = tested on: calcium chloride-induced arrhythmia model in rats; assay: Prophylactic antiarrhythmic activity in calcium chloride-induced arrhythmia; assay type: in vivo, rat; settings: 5 mg/kg iv 15 min before calcium chloride 140 mg/kg; number of animals with event
Procedure: as §1

α2-adrenergic receptors = assay: α2-adrenoceptor radioligand binding assay ([3H]-clonidine, rat cortex); settings: rat cortex tissue, mean ± SEM, n.a. = did not bind at 10^−5 M
Procedure: as §2

[3] = tested on: adrenaline-induced arrhythmia model in rats; assay: Prophylactic antiarrhythmic activity in adrenaline-induced arrhythmia; assay type: in vivo, rat; settings: for Blocks / Bradycardia / Extrasystoles / Mortality: number of animals with event
Procedure: as §1

[4] = tested on: pressor response to methoxamine in rats; assay: Influence on blood vasopressor response to methoxamine in rats; assay type: in vivo, rat; settings: 5 mg/kg iv, methoxamine 150 μg/kg before and 5 min after compound
Procedure: The experiment was performed to establish the effect of the studied derivatives on the pressor response to methoxamine (150 µg/kg, iv), according to the methods described previously. Normotensive Wistar rats were anesthetized with thiopental (75 mg/kg ip). The right carotid artery was cannulated with a polyethylene tube filled with heparin solution using a Datamax apparatus (Columbus Instruments, Columbus, OH, USA). After a 15-min stabilization period, the pressor response to methoxamine before (control) and 5 min after the administration of the tested compounds was measured (Figure 4B). The tested compounds were administered at the lowest hypotensive dose.

[5] = 2.5 mg/kg iv, 0 min (before administration)
[6] = 5.0 mg/kg iv, 0 min (before administration)
[7] = 0.25 mg/kg iv 15 min before adrenaline 20 μg/kg
[8] = 0.5 mg/kg iv 15 min before adrenaline 20 μg/kg
[9] = 1 mg/kg iv 15 min before adrenaline 20 μg/kg

COc1ccccc1N1CCN(Cc2ccc(COc3ccccc3C(N)=O)cc2)CC1.Cl [JJGW12, 2-[(4-{[4-(2-metoxyphenyl)piperazin-1-ylo]methyl}phenyl)metoxy}benzamide hydrochloride]
Blocks [1]: 5/6
Bradycardia [1]: 6/6
Extrasystoles [1]: 6/6
Fibrillations [1]: 5/6
Mortality [1]: 6/6
Adrenergic Receptors—pKi α1 (α1-adrenergic receptors): 7.41 ± 0.01
DBP—diastolic blood pressure (normotensive rats; [5]): 95.0 ± 16.0 mmHg
SBP—systolic blood pressure (normotensive rats; [5]): 122.2 ± 15.6 mmHg
DBP—diastolic blood pressure (normotensive rats; 2.5 mg/kg iv, 5 min): 94.5 ± 16.5 mmHg
SBP—systolic blood pressure (normotensive rats; 2.5 mg/kg iv, 5 min): 120.7 ± 13.8 mmHg
DBP—diastolic blood pressure (normotensive rats; 2.5 mg/kg iv, 10 min): 87.5 ± 23.0 mmHg
SBP—systolic blood pressure (normotensive rats; 2.5 mg/kg iv, 10 min): 114.5 ± 10.6 mmHg
DBP—diastolic blood pressure (normotensive rats; 2.5 mg/kg iv, 20 min): 83.5 ± 22.4 mmHg
SBP—systolic blood pressure (normotensive rats; 2.5 mg/kg iv, 20 min): 109.7 ± 9.3 mmHg
DBP—diastolic blood pressure (normotensive rats; 2.5 mg/kg iv, 30 min): 84.0 ± 21.4 mmHg
SBP—systolic blood pressure (normotensive rats; 2.5 mg/kg iv, 30 min): 106.5 ± 13.1 mmHg
DBP—diastolic blood pressure (normotensive rats; 2.5 mg/kg iv, 40 min): 87.8 ± 16.7 mmHg
SBP—systolic blood pressure (normotensive rats; 2.5 mg/kg iv, 40 min): 108.8 ± 11.8 mmHg
DBP—diastolic blood pressure (normotensive rats; 2.5 mg/kg iv, 50 min): 89.3 ± 13.4 mmHg
SBP—systolic blood pressure (normotensive rats; 2.5 mg/kg iv, 50 min): 110.0 ± 7.5 mmHg
DBP—diastolic blood pressure (normotensive rats; 2.5 mg/kg iv, 60 min): 89.2 ± 13.9 mmHg
SBP—systolic blood pressure (normotensive rats; 2.5 mg/kg iv, 60 min): 110.5 ± 8.1 mmHg
DBP—diastolic blood pressure (normotensive rats; [6]): 95.7 ± 6.0 mmHg
SBP—systolic blood pressure (normotensive rats; [6]): 122.5 ± 11.9 mmHg
decrease of the systolic blood pressure (normotensive rats; 5 mg/kg iv, 50th min since administration): 13%
DBP—diastolic blood pressure (normotensive rats; 5.0 mg/kg iv, 5 min): 87.7 ± 7.0 mmHg
SBP—systolic blood pressure (normotensive rats; 5.0 mg/kg iv, 5 min): 120.7 ± 9.8 mmHg
DBP—diastolic blood pressure (normotensive rats; 5.0 mg/kg iv, 10 min): 89.3 ± 8.1 mmHg
SBP—systolic blood pressure (normotensive rats; 5.0 mg/kg iv, 10 min): 114.5 ± 9.1 mmHg
DBP—diastolic blood pressure (normotensive rats; 5.0 mg/kg iv, 20 min): 88.5 ± 9.0 mmHg
SBP—systolic blood pressure (normotensive rats; 5.0 mg/kg iv, 20 min): 112.8 ± 10.0 mmHg
DBP—diastolic blood pressure (normotensive rats; 5.0 mg/kg iv, 30 min): 87.8 ± 8.8 mmHg
SBP—systolic blood pressure (normotensive rats; 5.0 mg/kg iv, 30 min): 111.5 ± 10.4 mmHg
DBP—diastolic blood pressure (normotensive rats; 5.0 mg/kg iv, 40 min): 87.8 ± 8.7 mmHg
SBP—systolic blood pressure (normotensive rats; 5.0 mg/kg iv, 40 min): 113.0 ± 11.9 mmHg
DBP—diastolic blood pressure (normotensive rats; 5.0 mg/kg iv, 50 min): 85.8 ± 8.1 mmHg
SBP—systolic blood pressure (normotensive rats; 5.0 mg/kg iv, 50 min): 107.0 ± 12.7 ^a mmHg
DBP—diastolic blood pressure (normotensive rats; 5.0 mg/kg iv, 60 min): 86.7 ± 10.7 mmHg
SBP—systolic blood pressure (normotensive rats; 5.0 mg/kg iv, 60 min): 109.8 ± 12.2 mmHg
influence on the diastolic blood pressure (normotensive rats; 5 mg/kg iv, normotensive rats): did not influence the diastolic blood pressure
Blocks [2]: 6/6
Bradycardia [2]: 6/6
Extrasystoles [2]: 6/6
Fibrillations [2]: 4/6
Mortality [2]: 6/6
Adrenergic Receptors—pKi α2 (α2-adrenergic receptors): 6.11 ± 0.01
Blocks [3, 7]: 6/6
Bradycardia [3, 7]: 5/6
Extrasystoles [3, 7]: 6/6
Mortality [3, 7]: 3/6
Blocks [3, 8]: 4/5
Bradycardia [3, 8]: 3/5
Extrasystoles [3, 8]: 4/5
Mortality [3, 8]: 0/5
Blocks [3, 9]: 3/5
Bradycardia [3, 9]: 1/5
Extrasystoles [3, 9]: 3/5
Mortality [3, 9]: 0/5
ED50 ([3]; prophylactic, iv 15 min before adrenaline 20 μg/kg, confidence limits in brackets (Litchfield and Wilcoxon)): 0.44 (0.10–1.98) mg/kg
attenuation of the methoxamine pressor response [4]: 97%
